Values after ≈ are worked out from the molar mass of the structure shown.
Experiments:
[1] = system: Bcl-2 in Caco-2 cells; experiment: Bcl-2 ELISA in treated Caco-2 cells; format: cell-based, human; settings: Caco-2 cells treated at the IC50 value, mean ± SE, n = 3
Experimental: (§1) Following the treatment of HepG-2, Caco-2, A549, and BJ-1 cells with the SB-CuO-NPs at their respective IC50 values, as illustrated in Figure 9 and detailed in Table 5, an assessment of the activities of the caspase-3 and Bcl-2 enzymes was conducted in the treated cells. […] This mechanism ultimately triggers apoptosis. Additionally, the increased activity of caspase-3 results in a decrease in the expression of cyclin D1 and CDK-2 mRNA, thereby promoting the arrest of the G1 phase of the cell cycle. Othman et al. further noted that the biosynthesized M-NPs facilitate apoptosis by inhibiting the expression of the PI3K/AKT and Ras/Raf/ERK protein signaling pathways.
(§2) Invitrogen Corporation, following the manufacturer's instructions.

[2] = system: normal human fibroblast (BJ-1) cell line; experiment: MTT cytotoxicity, BJ-1; settings: Homo sapiens, Fibroblast, 48 h, read-out: Median Inhibitory Concentration (IC50) BJ-1
[3] = MTT cytotoxicity, BJ-1; settings: human, BJ-1 normal fibroblast cells
[4] = system: caspase-3 in BJ-1 cells; experiment: Caspase-3 ELISA in treated BJ-1 cells; format: cell-based, human; settings: BJ-1 cells treated at the IC50 value, mean ± SE, n = 3
Experimental: as §1, §2

[5] = ABTS radical scavenging; settings: mean ± SE, n = 3
Experimental: The procedure for the 2,2'-azinobis-(3-ethylbenzothiazoline-6-sulfonic acid) (ABTS) […]
solution (7 mM) and potassium persulfate solution (2.4 mM). The working solution was prepared by mixing the two stock solutions in equal quantities and allowing them to react at room temperature in a dark place for 14 hours. The solution was then diluted by mixing 1 mL of ABTS solution with 60 mL of methanol to obtain an absorbance of 0.706 ± 0.01 units at 734 nm using a spectrophotometer. Fresh ABTS solution was prepared for each assay. The tested samples (at each concentration) were allowed to react with 1 mL of the ABTS solution, and the absorbance was taken at 734 nm after 7 minutes using a spectrophotometer. […]

[6] = system: Bcl-2 in HepG-2 cells; experiment: Bcl-2 ELISA in treated HepG-2 cells; format: cell-based, human; settings: HepG-2 cells treated at the IC50 value, mean ± SE, n = 3
Experimental: as §1, §2

[7] = system: human lung cancer (A549) cell line; experiment: MTT cytotoxicity, A549
[8] = target: T1, 5-LOX enzyme (human recombinant) (Homo sapiens, UniProt P09917); experiment: 5-Lipoxygenase inhibition assay; format: biochemical; settings: mean ± SE, n = 3
T1 construct: purchased Sigma-Aldrich 437996
T1 sequence (P09917 1-674): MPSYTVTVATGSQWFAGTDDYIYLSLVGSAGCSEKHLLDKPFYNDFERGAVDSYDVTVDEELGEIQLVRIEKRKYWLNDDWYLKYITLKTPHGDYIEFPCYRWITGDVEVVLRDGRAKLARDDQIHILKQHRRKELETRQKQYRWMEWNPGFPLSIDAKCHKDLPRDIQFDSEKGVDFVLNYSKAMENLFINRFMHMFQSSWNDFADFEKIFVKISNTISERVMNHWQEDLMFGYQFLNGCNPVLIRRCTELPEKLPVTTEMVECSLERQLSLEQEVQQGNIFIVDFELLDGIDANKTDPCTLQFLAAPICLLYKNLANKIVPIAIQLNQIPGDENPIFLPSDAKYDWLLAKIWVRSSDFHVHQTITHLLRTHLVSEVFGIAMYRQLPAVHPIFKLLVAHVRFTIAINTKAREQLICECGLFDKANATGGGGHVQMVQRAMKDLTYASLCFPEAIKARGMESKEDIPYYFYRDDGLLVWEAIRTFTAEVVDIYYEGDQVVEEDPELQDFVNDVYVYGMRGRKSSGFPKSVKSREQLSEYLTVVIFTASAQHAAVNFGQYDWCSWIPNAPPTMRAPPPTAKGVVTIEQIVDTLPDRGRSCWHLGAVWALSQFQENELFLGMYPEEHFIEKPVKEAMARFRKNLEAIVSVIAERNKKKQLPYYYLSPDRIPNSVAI

[9] = system: caspase-3 in HepG-2 cells; experiment: Caspase-3 ELISA in treated HepG-2 cells; format: cell-based, human; settings: HepG-2 cells treated at the IC50 value, mean ± SE, n = 3
Experimental: as §1, §2

[10] = system: human colon cancer (Caco-2) cell line; experiment: MTT cytotoxicity, Caco-2
[11] = target: T2, COX-2 (Homo sapiens, UniProt P35354); experiment: COX-2 inhibition assay (Cayman kit); format: biochemical; settings: mean ± SE, n = 3
T2 construct: purchased Cayman 560131
T2 sequence (P35354 18-604): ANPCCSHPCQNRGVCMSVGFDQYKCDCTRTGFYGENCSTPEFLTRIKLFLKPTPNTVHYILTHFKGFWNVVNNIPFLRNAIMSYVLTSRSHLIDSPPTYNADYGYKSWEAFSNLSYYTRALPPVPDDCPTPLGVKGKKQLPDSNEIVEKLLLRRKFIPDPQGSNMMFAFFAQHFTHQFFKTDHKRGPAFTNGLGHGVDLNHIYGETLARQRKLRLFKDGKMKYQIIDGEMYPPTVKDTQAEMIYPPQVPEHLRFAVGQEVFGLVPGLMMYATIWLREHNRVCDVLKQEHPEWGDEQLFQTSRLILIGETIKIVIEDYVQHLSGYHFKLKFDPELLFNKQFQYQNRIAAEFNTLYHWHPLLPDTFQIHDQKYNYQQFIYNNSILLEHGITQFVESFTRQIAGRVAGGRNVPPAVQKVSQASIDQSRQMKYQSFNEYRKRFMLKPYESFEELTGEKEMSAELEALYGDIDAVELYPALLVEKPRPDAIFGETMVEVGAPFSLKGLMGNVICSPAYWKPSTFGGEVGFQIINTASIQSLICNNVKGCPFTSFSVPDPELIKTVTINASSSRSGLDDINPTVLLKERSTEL

## Cc1nn(-c2ccccc2)c(Cl)c1C=NN=C1C(=O)Nc2ccccc21 [SB]
[1]
  Bcl-2: 3.77 ± 0.05 ng/mL
[2]
  IC50: 168 ± 2.22 µg/mL (≈ 461 µM)
[3]
  viability at 48 h, 31.13 μg/mL: 90.9%
  viability at 48 h, 62.5 μg/mL: 80.9%
  viability at 48 h, 125 μg/mL: 62.7%
  viability at 48 h, 250 μg/mL: 47.2%
  viability at 48 h, 500 μg/mL: 19.1%
[4]
  Caspase-3: 109.07 ± 0.18 pg/mL
[5]; at 100 µg/mL
  Scavenging activity ABTS Inhib. (%): 48.29 ± 0.18%
[5]
  Scavenging activity ABTS IC50: 5.40 ± 0.06 µg/mL
[6]
  Bcl-2: 7.32 ± 0.10 ng/mL
[7]; A549
  viability at 31.13 µg/mL: 86.2%
  viability at 62.5 µg/mL: 70.3%
  viability at 125 µg/mL: 44.8%
  viability at 250 µg/mL: 38.5%
  viability at 500 µg/mL: 18.8%
[7]; A549, 48 h, read-out: Median Inhibitory Concentration (IC50) A549
  IC50: 110 ± 2.49 µg/mL (≈ 303 µM)
[8]; at 100 µg/mL, read-out: 5-LOX Inhib. (%)
  inhibition at 100 µg/mL: 26.71 ± 0.18%
[8]
  IC50: 36.6 µM
[9]
  Caspase-3: 165.55 ± 1.29 pg/mL
[10]; Caco-2
  viability at 31.13 µg/mL: 86%
  viability at 62.5 µg/mL: 72.2%
  viability at 125 µg/mL: 48.6%
  viability at 250 µg/mL: 38.4%
  viability at 500 µg/mL: 18.6%
[10]; Caco-2, 48 h, read-out: Median Inhibitory Concentration (IC50) Caco-2
  IC50: 115 ± 3.25 µg/mL (≈ 317 µM)
[11]; at 100 µg/mL, read-out: COX-2 Inhib. (%)
  inhibition at 100 µg/mL: 33.86 ± 0.18%
[11]
  IC50: 19.7 µM

— publication PMC11859031, “Assessment of the In Vitro Biological Activities of Schiff Base-Synthesized Copper Oxide Nanoparticles as an Anti-Diabetic, Anti-Alzheimer, and Anti-Cancer Agent” (Pharmaceutics, 2025)
